Counter-ions that a name gives are not always drawn.
Legend:
PPARγ-RXRα heterodimer = target: T1, PPARγ-RXRα heterodimer (Homo sapiens, UniProt P37231); assay: PPARγ-RXRα heterodimer ligand activity (luciferase reporter); assay type: cell-based; conditions: PPARγ:RXRα:4ERPP/CHO-K1 cells, 18-24 hr, concentration showing 50% of the maximum induction rate
T1 construct: expressed in transfected cells; host or cells: CHO-K1
T1 sequence (P37231 1-505): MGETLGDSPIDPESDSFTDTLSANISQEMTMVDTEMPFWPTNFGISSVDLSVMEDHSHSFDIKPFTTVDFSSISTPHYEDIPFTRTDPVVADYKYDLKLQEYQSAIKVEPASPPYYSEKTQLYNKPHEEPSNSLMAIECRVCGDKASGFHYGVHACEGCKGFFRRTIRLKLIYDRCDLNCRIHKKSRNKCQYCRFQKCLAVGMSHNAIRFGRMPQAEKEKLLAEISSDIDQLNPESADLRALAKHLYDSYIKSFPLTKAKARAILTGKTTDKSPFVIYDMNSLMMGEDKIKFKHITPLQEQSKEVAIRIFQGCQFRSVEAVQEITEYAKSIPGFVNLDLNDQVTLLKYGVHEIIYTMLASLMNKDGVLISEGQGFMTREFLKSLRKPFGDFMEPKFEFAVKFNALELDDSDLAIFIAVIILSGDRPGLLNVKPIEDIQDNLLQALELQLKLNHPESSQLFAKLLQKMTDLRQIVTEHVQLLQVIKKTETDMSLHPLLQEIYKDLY
T1 sequence (P19793 1-462 partner): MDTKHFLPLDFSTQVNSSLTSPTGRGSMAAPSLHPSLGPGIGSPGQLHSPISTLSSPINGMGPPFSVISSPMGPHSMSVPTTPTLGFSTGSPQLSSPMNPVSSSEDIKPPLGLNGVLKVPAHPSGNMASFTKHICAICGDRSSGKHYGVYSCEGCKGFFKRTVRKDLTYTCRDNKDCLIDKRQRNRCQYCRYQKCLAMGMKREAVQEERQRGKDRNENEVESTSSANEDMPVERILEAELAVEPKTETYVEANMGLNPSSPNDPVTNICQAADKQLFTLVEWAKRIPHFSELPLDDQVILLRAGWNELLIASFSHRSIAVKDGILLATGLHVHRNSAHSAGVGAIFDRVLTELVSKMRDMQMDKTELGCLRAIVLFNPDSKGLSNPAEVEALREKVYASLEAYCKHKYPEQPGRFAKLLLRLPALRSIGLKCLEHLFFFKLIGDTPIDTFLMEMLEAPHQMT
Protocol: The PPARγ:RXRα:4ERPP/CHO-K1 cells described in WO03/099793 were cultured in a Ham F12 medium [manufactured by Life Technologies, Inc., US] containing 10% calf fetal serum [manufactured by Life Technologies, Inc., US], sown in a 96-well white plate [manufactured by Corning Coster Corporation, US] at 2×10^4 cells/well, and incubated overnight in a carbon dioxide gas incubator at 37° C.
Then, the medium was removed from the 96 well white plate, 80 μl of Ham F12 medium containing 0.1% fatty acid-free bovine serum albumin (BSA) and a test compound (20 μl) were added, and the cells were incubated for 18-24 hr in a carbon dioxide gas incubator at 37° C. The medium was removed, 40 μl of PicaGene 7.5 (manufactured by Wako Pure Chemical Industries, Ltd.) diluted 2-fold with HBSS (HANKS' BALANCED SALT SOLUTION) [manufactured by BIO WHITTAKER, US] was added. After stirring, the luciferase activity was determined using the 1420 ARVO Multilabel Counter [manufactured by PerkinElmer, US].
The induction rate was calculated from the luciferase activity of each test compound based on the luciferase activity of the test compound non-administration group as 1. The test compound concentration and the induction rate were analyzed by PRISM [manufactured by GraphPad Software, Inc., US] to calculate EC50 value (compound concentration showing 50% of the maximum value of induction rate) of the test compound.

Row | Structure (SMILES) | EC50 (PPARγ-RXRα heterodimer) [nM] | melting point [°C]
1 | CCCOc1cc(CCCOc2c(CC(=O)O)cccc2OC)n(C(C)c2ccc(Cl)cc2Cl)n1 (stereo not drawn) [Example 19, [2-(3-{1-[1-(2,4-dichlorophenyl)ethyl]-3-propoxy-1H-pyrazol-5-yl}propoxy)-3-methoxyphenyl]acetic acid] | 3.2 | 
2 | CC(C)c1cc(CCCOc2nn(C)cc2CC(=O)O)n(Cc2ccc(Cl)cc2Cl)n1 [Example 33, (3-{3-[1-(2,4-dichlorobenzyl)-3-isopropyl-1H-pyrazol-5-yl]propoxy}-1-methyl-1H-pyrazol-4-yl)acetic acid] | 30 | 67 to 68
3 | CC(C)c1cc(CCCOc2nn(Cc3ccccc3)cc2CC(=O)O)n(Cc2ccc(Cl)cc2Cl)n1 [Example 34, (1-benzyl-3-{3-[1-(2,4-dichlorobenzyl)-3-isopropyl-1H-pyrazol-5-yl]propoxy}-1H-pyrazol-4-yl)acetic acid 1/2 calcium salt] | 1.7 | 
4 | COc1cccc(CC(=O)O)c1OCCCc1cc(C(C)C)nn1Cc1ccc(Cl)cc1Cl [Example 35, (2-{3-[1-(2,4-dichlorobenzyl)-3-isopropyl-1H-pyrazol-5-yl]propoxy}-3-methoxyphenyl)acetic acid] | 2.7 | 101 to 102
5 | Cc1nc(OCCCc2cc(OC(C)C)nn2Cc2ccc(Cl)cc2Cl)c(CC(=O)O)s1 [Example 36, (4-{3-[1-(2,4-dichlorobenzyl)-3-isopropoxy-1H-pyrazol-5-yl]propoxy}-2-methyl-1,3-thiazol-5-yl)acetic acid] | 20 | 75 to 77
6 | CC(C)c1cc(CCCOc2ncccc2CC(=O)O)n(Cc2ccc(Cl)cc2Cl)n1 [Example 37, (2-{3-[1-(2,4-dichlorobenzyl)-3-isopropyl-1H-pyrazol-5-yl]propoxy}pyridin-3-yl)acetic acid] | 6.4 | 111 to 112
7 | CCCOc1cc(CCCOc2c(CC(=O)O)cccc2OC)n(Cc2ccc(C(F)(F)F)cc2)n1 [Example 59, [3-methoxy-2-(3-{3-propoxy-1-[4-(trifluoromethyl)benzyl]-1H-pyrazol-5-yl}propoxy)phenyl]acetic acid] | 23 | 122 to 123
8 | CC(C)Oc1cc(CCCOc2nn(Cc3ccccc3)cc2CC(=O)O)n(Cc2ccc(Cl)cc2OC(C)C)n1 [Example 71, (1-benzyl-3-{3-[1-(4-chloro-2-isopropoxybenzyl)-3-isopropoxy-1H-pyrazol-5-yl]propoxy}-1H-pyrazol-4-yl)acetic acid] | 39 | 
9 | Cc1cc(Cl)ccc1Cn1nc(OC(C)C)cc1CCCOc1nn(Cc2ccccc2)cc1CC(=O)O [Example 73, (1-benzyl-3-{3-[1-(4-chloro-2-methylbenzyl)-3-isopropoxy-1H-pyrazol-5-yl]propoxy}-1H-pyrazol-4-yl)acetic acid] | 3 | 81 to 82
10 | CC(C)c1cc(CCCOc2nn(Cc3ccccc3)cc2CC(=O)O)n(Cc2ccc(C(F)(F)F)cc2Cl)n1 [Example 75, [1-benzyl-3-(3-{1-[2-chloro-4-(trifluoromethyl)benzyl]-3-isopropyl-1H-pyrazol-5-yl}propoxy)-1H-pyrazol-4-yl]acetic acid] | 1.9 | 
11 | Cc1cc(C(F)(F)F)ccc1Cn1nc(OC(C)C)cc1CCCOc1ncccc1CC(=O)O [Example 80, [2-(3-{3-isopropoxy-1-[2-methyl-4-(trifluoromethyl)benzyl]-1H-pyrazol-5-yl}propoxy)pyridin-3-yl]acetic acid] | 5.4 | 105 to 107
12 | CCCOc1cc(CCCOc2c(CC(=O)O)cccc2OC)n(Cc2ccc(F)cc2F)n1 [Example 82, (2-{3-[1-(2,4-difluorobenzyl)-3-propoxy-1H-pyrazol-5-yl]propoxy}-3-methoxyphenyl)acetic acid] | 26 | 77 to 80
13 | CCCOc1cc(CCCOc2c(CC(=O)O)cccc2OC)n(Cc2ccccc2OC)n1 [Example 83, (2-{3-[1-(2-methoxybenzyl)-3-propoxy-1H-pyrazol-5-yl]propoxy}-3-methoxyphenyl)acetic acid] | 18 | 79 to 82
14 | CC(C)Oc1cc(CCCOc2ccc3ccccc3c2CC(=O)O)n(Cc2ccc(Cl)cc2Cl)n1 [Example 85, (2-{3-[1-(2,4-dichlorobenzyl)-3-isopropoxy-1H-pyrazol-5-yl]propoxy}-1-naphthyl)acetic acid] | 2.6 | 120 to 122
15 | CC(C)Oc1cc(CCCOc2nn(Cc3ccccc3)cc2CC(=O)O)n(Cc2ccc(F)cc2Cl)n1 [Example 92, (1-benzyl-3-{3-[1-(2-chloro-4-fluorobenzyl)-3-isopropoxy-1H-pyrazol-5-yl]propoxy}-1H-pyrazol-4-yl)acetic acid] | 5.1 | 121 to 123
16 | CC(C)Oc1cc(CCCOc2ncccc2CC(=O)O)n(Cc2ccc(F)cc2Cl)n1 [Example 93, (2-{3-[1-(2-chloro-4-fluorobenzyl)-3-isopropoxy-1H-pyrazol-5-yl]propoxy}pyridin-3-yl)acetic acid] | 42 | 90 to 91
17 | CCS(=O)(=O)CCOc1cc(CCCOc2nn(Cc3ccccc3)cc2CC(=O)O)n(Cc2ccc(Cl)cc2Cl)n1 [Example 98, [1-benzyl-3-(3-{1-(2,4-dichlorobenzyl)-3-[2-(ethylsulfonyl)ethoxy]-1H-pyrazol-5-yl}propoxy)-1H-pyrazol-4-yl]acetic acid] | 5.1 | 100.4 to 101.4
18 | CC(C)Oc1ccc(CCCOc2nn(Cc3ccccc3)cc2CC(=O)O)c(Oc2ncc(Cl)cc2Cl)c1 [Example 133, [1-benzyl-3-(3-{2-[(3,5-dichloropyridin-2-yl)oxy]-4-isopropoxyphenyl}propoxy)-1H-pyrazol-4-yl]acetic acid] | 1.2 | 111 to 113
19 | CC(C)Oc1ccc(CCCOc2cc(CCC(=O)O)n(Cc3ccccc3)n2)c(Oc2ncc(C(F)(F)F)cc2Cl)c1 [Example 137, 3-{1-benzyl-3-[3-(2-{[3-chloro-5-(trifluoromethyl)pyridin-2-yl]oxy}-4-isopropoxyphenyl)propoxy]-1H-pyrazol-5-yl}propanoic acid] | 0.61 | 99 to 100
20 | CC(C)Oc1ccc(CCCOc2cc(CCC(=O)O)n(C3CCCCC3)n2)c(Oc2ncc(C(F)(F)F)cc2Cl)c1 [Example 144, 3-{3-[3-(2-{[3-chloro-5-(trifluoromethyl)pyridin-2-yl]oxy}-4-isopropoxyphenyl)propoxy]-1-cyclohexyl-1H-pyrazol-5-yl}propanoic acid] | 3.7 | 114 to 115
21 | CC(C)Oc1ccc(CCCOc2nn(C)cc2CCC(=O)O)c(Oc2ncc(C(F)(F)F)cc2Cl)c1 [Example 145, 3-{3-[3-(2-{[3-chloro-5-(trifluoromethyl)pyridin-2-yl]oxy}-4-isopropoxyphenyl)propoxy]-1-methyl-1H-pyrazol-4-yl}propanoic acid] | 2.6 | 
22 | CC(C)OCCOc1ccc(CCCOc2nn(C)cc2CC(=O)O)c(Oc2ncc(C(F)(F)F)cc2Cl)c1 [Example 177, (3-{3-[2-{[3-chloro-5-(trifluoromethyl)pyridin-2-yl]oxy}-4-(2-isopropoxyethoxy)phenyl]propoxy}-1-methyl-1H-pyrazol-4-yl)acetic acid] | 1.5 | 103.5 to 104.5
